Patent publication US5885789A, “Solution-based assay for peroxidatively-active substances in bodily fluids” (STC Technologies Incorporated, priority 1997, dated 1999)

Assay: Calibration of the Working Reagent at 660 nm (aqueous hemoglobin solutions)
Type: biochemical
Settings: 2 minutes, 37° C.
Method: To prepare the solution-based assay composition, 14 mL of stock reagent B was poured into 1 mL of stock reagent A and mixed gently for 1-2 minutes by stirring. The combined A/B reagent was poured into 1 L of stock reagent C and mixed gently by stirring for approximately 30 minutes and allowed to stand at room temperature overnight prior to use. This prepared a working solution-based assay composition to be used as a working reagent.
A solution-based assay composition prepared according to Example 1 was used to calibrate its detectable color change having an absorbance at about 660 nm. Aqueous solutions of hemoglobin were prepared in the concentrations of 0.055, 0.060, 0.065, 0.068, 0.070, and 0.075 mg/dL. Twenty-one replicates of each hemoglobin solution were run using the following procedure.
The solution-based assay composition (or working reagent) and the hemoglobin solutions were equilibrated at room temperature before use. A 15 microliter sample of a hemoglobin solution and 250 microliters of the working reagent were transferred to the sample wheel of a Cobas-Bio autoanalyzer which was equilibrated at 37° C. The sample and the working reagent were mixed by rotation of the sample wheel. After the sample and working reagent were allowed to react for 2 minutes, the absorbance of the resulting solution was measured at 660 nm. The calibration curve shown in FIG. 1 was generated by plotting absorbance versus concentration data shown in Table 1 below and using standard regression analysis. This calibration curve can then be used to quantitatively assay the amount of hemoglobin in a bodily fluid.

HEMOGLOBIN
ABSORBANCE, 660 nm (hemoglobin 0.055 mg/dL, 15 microliter sample + 250 microliters working reagent): 0.1139 | ABSORBANCE, 660 nm (hemoglobin 0.06 mg/dL): 0.1319 | ABSORBANCE, 660 nm (hemoglobin 0.065 mg/dL): 0.1474 | ABSORBANCE, 660 nm (hemoglobin 0.0675 mg/dL): 0.1557 | ABSORBANCE, 660 nm (hemoglobin 0.070 mg/dL): 0.1719 | ABSORBANCE, 660 nm (hemoglobin 0.075 mg/dL): 0.1877
